The text below walks through data of patent EP1170007A1, “REMEDIES” (Takara Shuzo Co, Ltd., priority 1999, dated 2000).

Series [1] has as its system mouse. Description: Single oral dose toxicity in mouse. It is filed as in vivo.
The subject of series [2] is HGF production, MRC-5 cells. Description: Enhancement of HGF production in MRC-5 cells (ELISA). It is filed as cell-based, Human. Conditions: 24 hours, negative control defined as 100% (7.2 ng/ml). How it is done: MRC-5 cells (CCL171, Dainippon Pharmaceutical) were suspended in a DME medium (Bio Whittaker) containing 10% fetal calf serum at a concentration of 1 x 10^5 cells/ml. 500 µl of the suspension was placed into a 48-well cell culture plate. After culturing at 37°C in the presence of 5% CO2 for 24 hours, the medium was exchanged for a DME medium containing 1% fetal calf serum. Then, one of samples was added thereto. The plate was incubated for additional 24 hours. The medium was then recovered, and the amount of HGF in the culture medium was measured using Quantikine Human Hepatocyte Growth Factor (HGF) ELISA Kit (Funakoshi). The amount of HGF produced was expressed defining a negative control as 100%. In this case, the amount of HGF produced for the negative control was 7.2 ng/ml. Cyclopentenone (at a final concentration of 20, 40 or 160 µM), GM (at a final concentration of 20, 40, 80 or 160 µM), or dipropionylcyclopentenone (at a final concentration of 32 or 64 µM) was added as a sample. As a negative control, distilled water was added in the same volume as the sample. As a positive control, prostaglandin E1 was added at a final concentration of 0.01, 0.1, 1 or 10 µM.
(In general: An ELISA detects its analyte on a solid surface through an enzyme-linked reagent.)

In series [3] the test system is human insulin-like growth factor-1 (h-IGF-1) production in Hs68 cells. In words: Enhancement of h-IGF-1 production in Hs68 cells (ELISA). In kind it is cell-based. Conditions: Example 3-(2): 10 to 20 µM. As for the experimental part:
(1) Human newborn foreskin […] Hs68 cells (ATCC CRL-1635) were cultured in a D-MEM medium (Bio Whittaker) containing 10% fetal calf serum (FBS; Gibco BRL) in the presence of 5% CO2 at 37°C to saturation in a culture vessel. Then, the cells were suspended in the medium at a concentration of 3 x 10^5/ml using a trypsin-EDTA solution (Bio Whittaker). 200 µl of the suspension was dispensed into each well of a 96-well microtiter plate. When the cells were almost saturated in the culture vessel after culturing for 5 days, the medium was discarded and a medium containing 4HCP at a concentration of 40, 100 or 200 µM was added thereto. The culture supernatant was recovered at intervals of 24 hours for up to 96 hours. The effect of 4HCP on enhancement of human insulin-like growth factor-1 (h-IGF-1) production in Hs68 cells was determined using ELISA-Kit for h-IGF-1 (Diagnostic System Labo).
(2) Hs68 cells were cultured in a D-MEM medium containing 10% fetal calf serum in the presence of 5% CO2 at 37°C to saturation in a culture vessel. Then, the cells were suspended in the medium at a concentration of 3 x 10^5/ml using a trypsin-EDTA solution. 200 µl of the suspension was dispensed into each well of a 96-well microtiter plate. When the cells were almost saturated in the culture vessel after culturing for 5 to 7 days, the medium was discarded and the medium containing cyclopentenone or GM at a concentration of 0, 2.5, 5, 10 or 20 µM was added thereto. The culture supernatant was recovered at 1, 3, 6, 12, 24 or 48 hours. The effect of cyclopentenone or GM on the production (enhancement of expression) of h-IGF-1 in Hs68 cells was determined using ELISA-Kit for h-IGF-1. […] The amount of h-IGF-1 produced 6 hours after the addition was about twice the amount for the control with no addition. […] (3) Hs68 cells were cultured in a D-MEM medium containing 10% fetal calf serum in the presence of 5% CO2 at 37°C to saturation in a culture vessel. Then, the cells were suspended in the medium at a concentration of 3 x 10^5/ml using a trypsin-EDTA solution. 200 µl of the suspension was dispensed into each well of a 96-well microtiter plate. When the cells were almost saturated in the culture vessel after culturing for 5 to 7 days, the medium was discarded and the medium containing 4HCP, a compound of formula (XVIII) (4HCP-GSH) or glutathione (GSH) at a concentration of 0, 25, 50, 100 or 200 µM was added thereto. The culture supernatant was recovered at 1, 3, 6, 12, 24 or 48 hours. The effect on the production (enhancement of expression) of h-IGF-1 in Hs68 cells was determined using ELISA-Kit for h-IGF-1. As a result, when 4HCP was added at a concentration of 25 to 200 µM, h-IGF production in Hs68 cells became maximal at 1 hour and decreased thereafter as the time went by. […] Significant enhancement of h-IGF-1 production was observed when cultured for 10 to 30 minutes. […]

Series [4] concerns nerve growth factor production by L-M cells. In words: Enhancement of nerve growth factor production in L-M cells (enzyme immunoassay). In kind it is cell-based, Rat. Conditions: for Nerve growth factor concentration: 24 hours, 0 µM control 0.132. How it is done:
Rat fibroblast L-M cells (ATCC CCL-1.2) were suspended in a M199 medium (Gibco) containing 0.5% Bacto Peptone (Gibco) at a concentration of 1.0 x 10^5 cells/ml. 1 ml of the suspension was inoculated into each well of a 24-well plate. The cells were cultured aseptically. After culturing for 2 days, the medium was removed and substituted with a M199 medium containing 0.5% bovine serum albumin (Sigma). Then, cyclopentenone (final concentration of 1 to 25 µM), 4HCP (Aldrich) (final concentration of 12.5µM) or dipropionylcyclopentenone (final concentration of 3.1 to 9.4 µM) was added thereto. […]
After completion of the incubation, the concentration of nerve growth factor in the culture was measured by enzyme immunoassay (NGF Emax Immuno Assay System: Promega). […]

`N[C@@H](CCC(=O)N[C@@H](CSC1C=C(O)C(=O)C1)C(=O)NCC(=O)O)C(=O)O` (some centres unmarked) [GM, 2-hydroxy-4-glutathion-S-yl-2-cyclopenten-1-one]: the “death after single oral dose” value in series [1] (mouse, in vivo, po, 100 mg/kg) is reported as “no example of death was observed”. The “Increase in HGF production” value in series [2] (20 µM) was determined as 154%; in series [2] (40 µM), 179%; in series [2] (80 µM) it was 243%; in series [2] (160 µM), 319%. For the same molecule, the “production of h-IGF-1 in Hs68 cells (result in words)” value in series [3] is on record as “production of h-IGF in Hs68 cells was observed 3 hours after the addition”. Further, the “amount of h-IGF-1 produced relative to the control with no addition” value in series [3] (6 hours after the addition) is recorded as “about twice”.
Regarding dipropionylcyclopentenone, the “death after single oral dose” value in series [1] (single dose orally administered to a mouse at 100 mg/kg) was “no example of death was observed”. Also, the “Nerve growth factor concentration” value in series [4] (3.1 µM) stood at 0.164 ng/mL; in series [4] (6.3 µM), 0.259 ng/mL; in series [4] (9.4 µM), 0.257 ng/mL. In series [4] (24 hours incubation), the “production of nerve growth factor by L-M cells (result in words)” value is recorded as “enhanced the production of nerve growth factor by L-M cells in a concentration-dependent manner”. For the same molecule, the “Increase in HGF production” value came to 120% in series [2] (32 µM) and 144% in series [2] (64 µM).
